Earlier results in patent US5358712A, “Radiopharmaceutical agents for the detection of Alzheimer's disease” (Regents of the University of Minnesota, priority 1993, dated 1994).
Entries after “also recorded” stand apart in the source; their conditions may differ.

Assays:
[1] = test system: vesicular acetylcholine storage; details: cited from earlier work; for vesamicol-like inhibitory activity (in words): Kaufman et al 1988
vesamicol receptor = details: literature; cited from earlier work

SMILES | vesamicol-like inhibitory activity (in words) ([1]; Rogers et al 1989) | ligand potency at the vesamicol receptor (in words) (vesamicol receptor) | potency relative to vesamicol ([1]; Rogers et al 1989) | increase in activity relative to ethanol analog 4 ([1]; addition of an α-methyl group)
Nc1cccc2c1CC(N1CCC(c3ccccc3)CC1)C(O)C2 (stereo not drawn) [Compound 2] | potent | potent ligands | – | –
OCCN1CCC(c2ccccc2)CC1 [Compound 4] | weak inhibitors; also recorded: very weak inhibitor | – | two hundred and fifty times less potent | –
CC(O)CN1CCC(c2ccccc2)CC1 (stereo not drawn) [Compound 14] | weak inhibitors | – | – | –
CC(O)CN1CCC(c2ccccc2)CC1 (stereo not drawn) [Compound 14b] | – | – | – | thirty-fold increase in activity
